Experiment: Saturation concentration of CBD in adhesive matrix (turbidity / flux plateau)
Type: physicochemical

C=C(C)[C@@H]1CCC(C)=C[C@H]1c1c(O)cc(CCCCC)cc1O [CBD, cannabidiol]
Saturation concentration of CBD in acrylate adhesive Durotak 87-2287 (Durotak 87-2287 adhesive matrix): 30% | Saturation concentration of CBD in PIB adhesive (un-tackified PIB adhesive matrix): 12%
